From ChEMBL document CHEMBL1201862, “PubChem BioAssay data set” (2004)
The source made the active and inactive calls.

Experiments:
Melanocortin receptor 4 = Melanocortin receptor 4 (Homo sapiens, UniProt P32245); assay: inhibitors of MC4R cAMP signaling – cell-based, TR-FRET, biased antagonists, dose response (AID 602298); type: functional;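 further: antagonist potency against agonist-stimulated cAMP production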
[1] = THP-1 cell cytotoxicity, dose response, cytotoxicity control for non-replicating M. tuberculosis project (AID 489025); type: functional
[2] = molecular target: T1, Type-1 angiotensin II receptor (Homo sapiens, UniProt P30556); assay: antagonism of angiotensin II type 1 receptor – cell-based, uHTS hits, selectivity assay for APJ receptor antagonist project, dose response (AID 463214); type: functional;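 further: antagonist potency against angiotensin II stimulated AT1 response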
T1 sequence (P30556 whole entry): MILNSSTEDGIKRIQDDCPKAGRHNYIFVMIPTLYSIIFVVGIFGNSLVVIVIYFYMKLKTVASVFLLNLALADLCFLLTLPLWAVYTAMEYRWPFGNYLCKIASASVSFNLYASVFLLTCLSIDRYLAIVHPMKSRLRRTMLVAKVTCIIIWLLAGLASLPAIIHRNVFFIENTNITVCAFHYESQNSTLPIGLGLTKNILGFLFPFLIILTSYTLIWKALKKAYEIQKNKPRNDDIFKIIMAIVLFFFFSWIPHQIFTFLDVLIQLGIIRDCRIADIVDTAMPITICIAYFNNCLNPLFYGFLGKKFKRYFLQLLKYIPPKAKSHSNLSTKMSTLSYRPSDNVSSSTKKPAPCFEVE

[3] = viability loss in HEK293 kidney cells – cell-based, cherry-picks, set 5, cytotoxicity control, dose response (AID 1053117); type: functional
[4] = blockers of FN fibrillogenesis by fibroblasts – AH1F cells, Alexa488-FN fluorescence, cherry-picks, dose response (AID 1035475); type: functional, cell-based
Paired box protein Pax-8 = Paired box protein Pax-8 (Homo sapiens, UniProt Q06710); assay: PAX8 transcriptional activity inhibition in RMG-I – RMG-I cells, luciferase, cherry-pick, dose response (AID 687027); type: functional, cell-based;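 further: luciferase reporter driven by Pax8 target thyroperoxidase promoter measured by SteadyGlo luminescence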
Sequence of Paired box protein Pax-8 (Q06710 whole entry): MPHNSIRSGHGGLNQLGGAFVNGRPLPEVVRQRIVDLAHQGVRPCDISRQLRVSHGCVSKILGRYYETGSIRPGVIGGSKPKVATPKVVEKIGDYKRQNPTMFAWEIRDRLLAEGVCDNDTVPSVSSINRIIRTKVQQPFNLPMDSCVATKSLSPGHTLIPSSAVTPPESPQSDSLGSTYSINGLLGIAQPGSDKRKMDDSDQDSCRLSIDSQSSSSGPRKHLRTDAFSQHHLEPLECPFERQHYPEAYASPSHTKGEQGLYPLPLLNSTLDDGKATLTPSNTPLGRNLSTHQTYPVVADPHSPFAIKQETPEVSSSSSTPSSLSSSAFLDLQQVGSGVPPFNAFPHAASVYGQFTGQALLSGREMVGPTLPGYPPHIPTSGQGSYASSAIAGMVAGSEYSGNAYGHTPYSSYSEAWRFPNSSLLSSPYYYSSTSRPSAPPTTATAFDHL

Protein RecA = molecular target: T2, Protein RecA (Mycobacterium tuberculosis, UniProt P9WHJ3); assay: Fluorescence Cell-Free Homogeneous Dose Retest to Identify Inhibitors of RecA-Intein Splicing Activity. [Related pubchem assays (depositor defined):AID2097, AID2223, AID489010, AID492950]; type: functional
T2 sequence (P9WHJ3 whole entry): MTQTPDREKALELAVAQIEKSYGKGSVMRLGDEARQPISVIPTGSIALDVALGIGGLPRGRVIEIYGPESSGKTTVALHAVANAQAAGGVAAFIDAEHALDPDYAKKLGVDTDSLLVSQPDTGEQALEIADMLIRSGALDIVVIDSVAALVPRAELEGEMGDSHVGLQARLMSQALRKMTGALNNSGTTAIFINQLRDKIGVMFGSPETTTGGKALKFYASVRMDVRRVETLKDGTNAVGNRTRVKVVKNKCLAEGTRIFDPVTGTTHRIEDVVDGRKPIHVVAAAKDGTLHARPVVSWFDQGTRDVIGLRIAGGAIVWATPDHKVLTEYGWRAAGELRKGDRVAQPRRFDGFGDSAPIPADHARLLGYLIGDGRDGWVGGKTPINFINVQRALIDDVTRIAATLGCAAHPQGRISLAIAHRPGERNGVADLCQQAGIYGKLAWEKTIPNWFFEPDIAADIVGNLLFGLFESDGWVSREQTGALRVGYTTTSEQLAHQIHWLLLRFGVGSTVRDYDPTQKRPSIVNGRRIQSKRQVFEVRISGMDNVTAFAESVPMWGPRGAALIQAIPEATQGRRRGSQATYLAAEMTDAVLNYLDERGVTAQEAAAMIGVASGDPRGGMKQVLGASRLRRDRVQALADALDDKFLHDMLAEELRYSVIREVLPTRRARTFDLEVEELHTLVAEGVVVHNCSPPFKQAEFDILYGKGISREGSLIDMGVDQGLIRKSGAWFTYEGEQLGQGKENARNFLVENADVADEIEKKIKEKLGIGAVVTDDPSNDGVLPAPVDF

[5] = Trypanosoma cruzi growth suppression in host cells – NIH3T3 host cells, beta-gal luminescence, confirmation (AID 2044); type: functional, cell-based;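 further: intracellular parasites grown in NIH/3T3 mouse fibroblasts as host cells; luminescent beta-galactosidase reporter signal from transgenic T. cruzi replicating inside host cells; inhibitors lower the luminescence signal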
CHO = CHO cell viability loss, potency – luminescence, cytotoxicity control for TLR9-MyD88 binding inhibitor project, dose response (AID 588339); type: functional, cell-based, hamster; conditions: Cricetulus griseus;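 further: CHO cells stably coexpressing TLR9 and MyD88 fusions from primary screen; compound exposure lasted 48 hours before viability readout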
INS1 = assay: INS-1E survival protection against cytokine death – cell-based, luminescence, retest, dose response (AID 449756); type: functional; conditions: Rattus norvegicus;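 further: cell death triggered by IL-1 beta plus TNF-alpha plus IFN-gamma mixture; protective hits raise ATP signal compared with cytokine alone wells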
Beta Lactamase = Beta Lactamase (Pseudomonas aeruginosa, UniProt Q932Y6); assay: BLA reporter interference, concentration series – BLA reporter cells, FRET fluorescence, artefact control for TLR9-MyD88 binding inhibitor project, dose response (AID 588341); type: cell-based;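 further: cell based assay in CHO-K1 cells stably expressing beta-lactamase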
Sequence of Beta Lactamase (Q932Y6 whole entry): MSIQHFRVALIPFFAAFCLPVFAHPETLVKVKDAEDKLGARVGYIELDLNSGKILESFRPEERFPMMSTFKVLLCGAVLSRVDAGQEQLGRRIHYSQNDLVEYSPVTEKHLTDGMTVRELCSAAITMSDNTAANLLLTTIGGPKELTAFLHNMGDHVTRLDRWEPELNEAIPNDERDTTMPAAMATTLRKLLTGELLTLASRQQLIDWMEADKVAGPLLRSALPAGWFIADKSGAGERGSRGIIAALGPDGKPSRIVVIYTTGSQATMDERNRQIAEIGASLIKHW

[6] = general cell-killing toxicity readout – plate reader, dry powder samples, cytotoxicity control for PAX8 inhibitor project, dose response (AID 743021); type: functional, cell-based
[7] = NIH3T3 cell viability loss – ATP luminescence, mouse fibroblasts, counter-screen, dose response (AID 2010); type: functional, cell-based;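 further: cells exposed to compound for about 90 hours before reading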
Large T antigen = Large T antigen (Simian virus 40, UniProt P03070); type: functional, Betapolyomavirus macacae;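 further: Confirmatory-stage PubChem screen for compounds that inhibit SV40 T antigen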
Sequence of Large T antigen (P03070 whole entry): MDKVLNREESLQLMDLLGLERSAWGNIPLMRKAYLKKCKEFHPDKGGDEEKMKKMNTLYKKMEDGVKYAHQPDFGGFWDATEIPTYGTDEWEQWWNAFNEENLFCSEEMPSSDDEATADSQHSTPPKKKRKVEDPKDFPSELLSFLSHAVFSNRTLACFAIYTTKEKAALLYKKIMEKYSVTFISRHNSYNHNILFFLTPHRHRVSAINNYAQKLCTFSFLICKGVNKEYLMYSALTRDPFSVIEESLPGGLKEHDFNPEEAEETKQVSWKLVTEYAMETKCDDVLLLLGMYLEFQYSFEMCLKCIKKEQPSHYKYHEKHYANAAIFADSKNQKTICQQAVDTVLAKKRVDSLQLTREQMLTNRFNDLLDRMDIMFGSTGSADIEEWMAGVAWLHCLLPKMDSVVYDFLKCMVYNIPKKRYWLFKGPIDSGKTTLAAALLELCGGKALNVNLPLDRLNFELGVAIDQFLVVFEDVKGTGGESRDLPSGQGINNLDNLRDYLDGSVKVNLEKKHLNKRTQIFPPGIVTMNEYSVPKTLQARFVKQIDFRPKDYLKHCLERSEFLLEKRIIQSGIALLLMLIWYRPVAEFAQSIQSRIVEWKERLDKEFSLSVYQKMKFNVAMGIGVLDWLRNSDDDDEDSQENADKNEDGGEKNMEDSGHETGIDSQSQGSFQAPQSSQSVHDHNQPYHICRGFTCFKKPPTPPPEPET

[8] = molecular target: T3, Heat shock factor protein 1 (Mus musculus, UniProt P38532); assay: decrease of HSF1-responsive luciferase luminescence – cell-based, NIH3T3, dose retest, confirmation (AID 2382); type: functional;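 further: NIH3T3 fibroblasts with HSF1-driven luciferase reporter stressed by proteasome inhibitor MG132; luminescence from HSF1-driven luciferase expression after 8 hours of MG132 stress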
T3 sequence (P38532 whole entry): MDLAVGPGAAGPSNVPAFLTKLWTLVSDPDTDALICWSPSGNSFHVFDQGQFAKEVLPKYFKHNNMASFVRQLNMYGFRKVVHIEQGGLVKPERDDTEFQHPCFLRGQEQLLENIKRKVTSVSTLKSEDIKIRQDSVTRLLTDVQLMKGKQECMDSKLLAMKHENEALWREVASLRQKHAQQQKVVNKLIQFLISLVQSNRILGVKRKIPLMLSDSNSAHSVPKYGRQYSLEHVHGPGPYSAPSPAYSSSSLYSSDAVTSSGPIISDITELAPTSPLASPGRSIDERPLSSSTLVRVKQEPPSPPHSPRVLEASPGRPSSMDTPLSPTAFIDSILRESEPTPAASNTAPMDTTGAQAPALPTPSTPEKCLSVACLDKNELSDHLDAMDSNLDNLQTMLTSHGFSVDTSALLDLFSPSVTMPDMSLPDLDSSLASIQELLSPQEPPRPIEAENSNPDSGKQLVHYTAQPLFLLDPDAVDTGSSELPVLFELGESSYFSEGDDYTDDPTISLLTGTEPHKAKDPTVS

Beta-galactosidase = Beta-galactosidase (Escherichia coli, UniProt Q8VNN2); assay: PubChem AID 485352; type: functional
Sequence of Beta-galactosidase (Q8VNN2 whole entry): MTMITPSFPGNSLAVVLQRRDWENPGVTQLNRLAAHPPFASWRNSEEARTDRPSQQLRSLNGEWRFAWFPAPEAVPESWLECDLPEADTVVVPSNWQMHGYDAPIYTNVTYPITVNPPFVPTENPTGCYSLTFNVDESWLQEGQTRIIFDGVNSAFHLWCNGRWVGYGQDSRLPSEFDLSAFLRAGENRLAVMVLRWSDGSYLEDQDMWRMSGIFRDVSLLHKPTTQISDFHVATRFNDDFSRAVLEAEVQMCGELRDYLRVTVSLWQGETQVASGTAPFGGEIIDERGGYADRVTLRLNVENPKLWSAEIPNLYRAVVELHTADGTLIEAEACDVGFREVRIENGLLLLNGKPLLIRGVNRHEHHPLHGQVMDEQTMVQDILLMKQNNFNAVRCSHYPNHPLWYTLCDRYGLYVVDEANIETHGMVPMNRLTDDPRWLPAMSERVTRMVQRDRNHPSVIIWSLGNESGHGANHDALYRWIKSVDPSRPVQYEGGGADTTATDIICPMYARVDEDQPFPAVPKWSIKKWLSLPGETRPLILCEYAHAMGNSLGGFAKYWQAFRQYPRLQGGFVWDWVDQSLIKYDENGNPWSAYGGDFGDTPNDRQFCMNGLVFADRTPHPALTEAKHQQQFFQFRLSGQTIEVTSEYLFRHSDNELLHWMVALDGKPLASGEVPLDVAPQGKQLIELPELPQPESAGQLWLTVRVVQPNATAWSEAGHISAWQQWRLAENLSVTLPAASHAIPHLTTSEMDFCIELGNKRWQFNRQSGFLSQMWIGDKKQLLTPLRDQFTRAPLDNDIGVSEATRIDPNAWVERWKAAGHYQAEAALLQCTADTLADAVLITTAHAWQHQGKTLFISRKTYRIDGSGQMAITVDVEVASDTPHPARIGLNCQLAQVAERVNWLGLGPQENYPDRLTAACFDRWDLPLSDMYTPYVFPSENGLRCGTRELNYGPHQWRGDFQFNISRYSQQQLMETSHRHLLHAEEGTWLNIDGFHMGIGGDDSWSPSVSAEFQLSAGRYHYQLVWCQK

[9] = molecular target: T4, Replicative DNA helicase DnaB (Mycobacterium tuberculosis, UniProt P9WMR3); assay: DnaB intein splicing inhibitors, dose response, biochemical, cell-free fluorescence (AID 449749); type: functional
T4 sequence (P9WMR3 whole entry): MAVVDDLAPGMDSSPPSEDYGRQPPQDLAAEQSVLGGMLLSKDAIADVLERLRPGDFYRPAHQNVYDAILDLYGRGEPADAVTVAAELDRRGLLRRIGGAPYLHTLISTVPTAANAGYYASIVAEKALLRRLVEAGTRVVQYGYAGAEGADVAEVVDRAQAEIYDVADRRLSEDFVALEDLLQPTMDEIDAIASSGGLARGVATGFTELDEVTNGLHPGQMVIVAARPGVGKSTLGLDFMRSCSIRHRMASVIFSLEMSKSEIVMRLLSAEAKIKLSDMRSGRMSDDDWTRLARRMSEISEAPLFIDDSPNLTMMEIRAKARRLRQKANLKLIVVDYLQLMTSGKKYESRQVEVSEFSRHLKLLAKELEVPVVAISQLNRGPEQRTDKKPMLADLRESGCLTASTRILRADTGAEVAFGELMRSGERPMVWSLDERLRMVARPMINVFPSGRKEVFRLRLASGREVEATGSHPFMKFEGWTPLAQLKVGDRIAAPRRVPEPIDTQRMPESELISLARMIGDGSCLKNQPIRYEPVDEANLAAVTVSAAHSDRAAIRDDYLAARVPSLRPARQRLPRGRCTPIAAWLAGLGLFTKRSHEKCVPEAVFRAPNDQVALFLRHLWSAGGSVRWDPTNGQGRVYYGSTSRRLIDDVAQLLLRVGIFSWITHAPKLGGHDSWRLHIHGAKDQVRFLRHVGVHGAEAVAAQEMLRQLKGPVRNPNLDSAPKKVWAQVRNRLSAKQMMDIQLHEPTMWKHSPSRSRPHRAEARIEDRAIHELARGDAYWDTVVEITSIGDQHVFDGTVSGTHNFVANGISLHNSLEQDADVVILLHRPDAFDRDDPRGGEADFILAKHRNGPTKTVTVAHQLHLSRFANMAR

[10] = viability loss in HepG2 hepatoma cells – cell-based, cherry-picks, set 5, cytotoxicity control, dose response (AID 1053118); type: functional
[11] = cAMP pathway inhibition in counterscreen cell line – TR-FRET cAMP detection, counter-screen for MC4R biased antagonist project, dose response (AID 602305); type: functional, cell-based;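 further: U2OS cells stimulated with forskolin near its EC80 as the cAMP inducer; potency is for inhibition of forskolin-stimulated cAMP signaling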

Sequence of Melanocortin receptor 4 (P32245 whole entry): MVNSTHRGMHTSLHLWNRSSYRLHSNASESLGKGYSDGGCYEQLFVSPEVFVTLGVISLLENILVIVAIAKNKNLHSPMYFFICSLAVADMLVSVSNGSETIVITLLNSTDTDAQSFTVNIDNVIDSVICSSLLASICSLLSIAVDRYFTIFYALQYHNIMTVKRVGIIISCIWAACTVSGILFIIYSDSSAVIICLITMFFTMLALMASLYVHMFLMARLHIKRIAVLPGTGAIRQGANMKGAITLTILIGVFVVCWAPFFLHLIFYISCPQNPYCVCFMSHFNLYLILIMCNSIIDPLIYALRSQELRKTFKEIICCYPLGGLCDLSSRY

Structure (SMILES): CCS(=O)(=O)c1ncc(Cl)c(C(=O)Nc2ccc(S(=O)(=O)N3CCC(C)CC3)cc2)n1
- IC50 (Melanocortin receptor 4): > 64.6 µM (inactive)
- CC50 [1]: 34.7 µM (active)
- IC50 [2]: 6.11 µM (active)
- AC50 [3]: 9.52 µM (active)
- AC50 [4]: 5.39 µM (active)
- AC50 (Paired box protein Pax-8): 3.45 µM (active)
- EC50 (Protein RecA): 0.889 µM (active)
- EC50 [5]: 1.72 µM (active)
- IC50 (CHO): 1.81 µM (active)
- AC50 (INS1): 4.66 µM (active)
- IC50 (Beta Lactamase): 8.61 µM (active)
- AC50 [6]: 29.3 µM (active)
- EC50 [7]: 4.05 µM (active)
- IC50 (Large T antigen): 52.5 µM (active)
- EC50 [8]: 4.04 µM (active)
- EC50 (Beta-galactosidase): > 40 µM (inactive)
- AC50 [9]: 1.13 µM (active)
- AC50 [10]: 7.65 µM (active)
- IC50 [11]: > 64.6 µM (inactive)
